Tests used:
[1] = tested on: Strain B, mutation K103N in HIV reverse transcriptase; assay: Antiviral activity, cellular assay, strain B; type: cell-based; conditions: for pEC50 B: HIV strain with RT mutation K103N, cellular assay
Protocol: (§1) Because of the increasing emergence of drug resistant HIV strains, the present compounds were tested for their potency against clinically isolated HIV strains harboring several mutations. These mutations are associated with resistance to reverse transcriptase inhibitors and result in viruses that show various degrees of phenotypic cross-resistance to the currently commercially available drugs such as for instance AZT and delavirdine.
(§2) The antiviral activity of the compound of the present invention has been evaluated in the presence of wild type HIV and HIV mutants bearing mutations at the reverse transcriptase gene. The activity of the compounds is evaluated using a cellular assay and the residual activity is expressed in pEC50 values. The columns IIIB and A-G in the table list the pEC50 values against various strains IIIB, A-G.
Strain B contains mutation K103N in HIV reverse transcriptase, […]

[2] = tested on: Strain C, mutation L100I in HIV reverse transcriptase; assay: Antiviral activity, cellular assay, strain C; type: cell-based; conditions: for pEC50 C: HIV strain with RT mutation L100I, cellular assay
Protocol: as §1, §2
Strain C contains mutation L100I in HIV reverse transcriptase, […]

[3] = tested on: Strain D, mutation Y188L in HIV reverse transcriptase; assay: Antiviral activity, cellular assay, strain D; type: cell-based; conditions: for pEC50 D: HIV strain with RT mutation Y188L, cellular assay
Protocol: as §1, §2
Strain D contains mutation Y188L in HIV reverse transcriptase, […]

[4] = Antiviral activity, cellular assay, strain G; type: cell-based, HIV; conditions: Human immunodeficiency virus 1, read-out: pEC50 G (converted)
Protocol: as §1, §2

[5] = tested on: Strain A, mutation Y181C in HIV reverse transcriptase; assay: Antiviral activity, cellular assay, strain A; type: cell-based; conditions: for pEC50 A: HIV strain with RT mutation Y181C, cellular assay
Protocol: as §1, §2
Strain A contains mutation Y181C in HIV reverse transcriptase, […]

[6] = tested on: Strain E, mutations L100I and K103N in HIV reverse transcriptase; assay: Antiviral activity, cellular assay, strain E; type: cell-based; conditions: for pEC50 E: HIV strain with RT mutations L100I and K103N, cellular assay
Protocol: as §1, §2
Strain E contains mutations L100I and K103N in HIV reverse transcriptase, […]

[7] = tested on: Strain F, mutations K103N and Y181C in HIV reverse transcriptase; assay: microbe, parasite or virus in culture; type: cell-based; conditions: for pEC50 F: HIV strain with RT mutations K103N and Y181C, cellular assay
[8] = tested on: Strain IIIB, wild type HIV-LAI strain; assay: Antiviral activity, cellular assay, strain IIIB; type: cell-based
Protocol: as §1, §2
Strain IIIB is wild type HIV-LAI strain

[9] = tested on: Strain G, mutations L100I, K103N, Y181C, V179I, Y181C, E138G, V179I, L2214F, V278V/1 and A327A/V in HIV reverse transcriptase; assay: Antiviral activity, cellular assay, strain G; type: cell-based; conditions: HIV strain with RT mutations L100I, K103N, Y181C, V179I, E138G, L2214F, V278V/1 and A327A/V; cellular assay
Protocol: as §1, §2

Cc1cc(/C=C/C#N)cc(C)c1Nc1nc(Nc2ccc(C#N)cc2)ncc1Br
melting point: > 250 °C

Cc1cc(/C=C/C#N)cc(C)c1Nc1nc(Nc2ccc(C#N)cc2)ncc1C(=O)O
melting point: > 250 °C

Cc1cc(/C=C/C#N)cc(C)c1Nc1nc(Nc2ccc(C#N)cc2)ncc1C(N)=O
melting point: > 250 °C

CC(=O)Nc1cnc(Nc2ccc(C#N)cc2)nc1Nc1c(C)cc(/C=C/C#N)cc1C
melting point: > 250 °C

N#C/C=C/c1cc(F)c(Nc2nc(Nc3ccc(C#N)cc3)ncc2Br)c(Cl)c1
melting point: 236 °C

Cc1cc(/C=C/C#N)cc(C)c1Nc1nc(Nc2ccc(C#N)cc2)ncc1[N+](=O)[O-]
melting point: > 250 °C

Cc1cc(/C=C/C#N)cc(C)c1Nc1nc(Nc2ccc(C#N)cc2)ncc1N
melting point: > 250 °C

N#C/C=C/c1cc(F)c(Nc2nc(Nc3ccc(C#N)cc3)ncc2[N+](=O)[O-])c(Cl)c1
melting point: > 250 °C

N#C/C=C/c1cc(F)c(Nc2nc(Nc3ccc(C#N)cc3)ncc2N)c(Cl)c1
melting point: > 250 °C

Cc1cc(/C=C/C#N)cc(C)c1Nc1nc(Nc2ccc(C#N)cc2)ncc1NC=O [Compound 13]
EC50 ([1]; Human immunodeficiency virus 1, read-out: pEC50 B (converted)): 0.631 nM
EC50 ([2]; Human immunodeficiency virus 1, read-out: pEC50 C (converted)): 0.631 nM
EC50 ([3]; Human immunodeficiency virus 1, read-out: pEC50 D (converted)): 3.16 nM
EC50 [4]: 1000 nM
EC50 ([5]; Human immunodeficiency virus 1, read-out: pEC50 A (converted)): 2.51 nM
EC50 ([6]; Human immunodeficiency virus 1, read-out: pEC50 E (converted)): 6.31 nM
EC50 ([7]; Human immunodeficiency virus 1, read-out: pEC50 F (converted)): 3.98 nM
EC50 ([8]; Human immunodeficiency virus 1, IIIB): 0.398 nM

Cc1cc(CCC#N)cc(C)c1Nc1nc(Nc2ccc(C#N)cc2)ncc1C(N)=O [Compound 26]
pEC50 B [1]: 9.7
pEC50 C [2]: 10
pEC50 D [3]: 8.6
pEC50 G [9]: 6.4
pEC50 A [5]: 9
pEC50 E [6]: 9.2
pEC50 F [7]: 9.2
pEC50 IIIB [8]: 9.7

CC(=O)Nc1cnc(Nc2ccc(C#N)cc2)nc1Nc1c(F)cc(/C=C/C#N)cc1Cl [Compound 28]
pEC50 B [1]: 8.6
pEC50 C [2]: 8.3
pEC50 D [3]: 7.3
pEC50 G [9]: 4.7
pEC50 A [5]: 7.9
pEC50 E [6]: 7
pEC50 F [7]: 7.3
pEC50 IIIB [8]: 8.8

CCON=Cc1cnc(Nc2ccc(C#N)cc2)nc1Nc1c(C)cc(/C=C/C#N)cc1C [Compound 31]
pEC50 B [1]: 8.5
pEC50 C [2]: 8.5
pEC50 D [3]: 8.2
pEC50 G [9]: 5.1
pEC50 A [5]: 8.2
pEC50 E [6]: 8.2
pEC50 F [7]: 8.2
pEC50 IIIB [8]: 8.5

CON=Cc1cnc(Nc2ccc(C#N)cc2)nc1Nc1c(C)cc(/C=C/C#N)cc1C [Compound 32]
pEC50 B [1]: 8.7
pEC50 C [2]: 9.3
pEC50 D [3]: 8.6
pEC50 G [9]: 6
pEC50 A [5]: 8.5
pEC50 E [6]: 8.6
pEC50 F [7]: 8.7
pEC50 IIIB [8]: 8.5

— US8946248B2, “HIV inhibiting 5-substituted pyrimidines” (priority 2004, dated 2015)
